Laboratory results as given in patent US10188634B2, “3-(3H-imidazo[4,5-C]pyridin-2-yl)-1 H-pyrazolo[4,3-B]pyridines and therapeutic uses thereof” (Samumed, LLC, priority 2015, dated 2019).

Columns and labels:
[1] = tested on: LL29 cells (primary human fibroblasts derived from IPF patients) treated with TGF-β1, α-smooth muscle actin; assay: Inhibition of the fibrotic process: αSMA staining in TGF-β1 treated primary human fibroblasts from IPF patients (LL29 cells); type: cell-based; details: Fibroblast, 96 h; for EC50: LL29 cells treated with TGF-β1 (20 ng/mL), 4 days; for inhibition at 10 µM: LL29 cells treated with TGF-β1, 4 days, read-out: percent inhibition in brackets (given for EC50 >10 μM)
IL-6 in THP-1 cells = assay: Inhibition of IL-6 in LPS-stimulated THP-1 human monocyte cells (HTRF); type: cell-based; details: IL-6 HTRF; for EC50: 500 ng/mL LPS, 22 hours; for inhibition at 10 µM: LPS, read-out: percent inhibition in brackets (given for EC50 >10 μM)
Method in brief: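 IL-6 was quantified by HTRF ratio after LPS (500 ng/mL, 22 h) stimulation of THP-1 monocytes pretreated 2 h with compound, 10-point 1:3 dilutions from 10 μM, 0.1% DMSO. Cells were held in 1% FBS for 24 h beforehand. Values normalised to DMSO; four-parameter EC50, or % inhibition at 10 μM above that.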

| SMILES | EC50 (IL-6 in THP-1 cells) [µM] | EC50 [1] [µM] | inhibition at 10 µM [1] [%] | inhibition at 10 µM (IL-6 in THP-1 cells) [%] |
| --- | --- | --- | --- | --- |
| CN1CCN(c2cncc3[nH]c(-c4n[nH]c5ccc(-c6cncnc6)nc45)nc23)CC1 [Compound 251, 3-(7-(4-Methylpiperazin-1-yl)-3H-imidazo[4,5-c]pyridin-2-yl)-5-(pyrimidin-5-yl)-1H-pyrazolo[4,3-b]pyridine] | > 10 | > 10 | 44.6 | 31.8 |
| Fc1cccc(-c2cncc3[nH]c(-c4n[nH]c5ccc(C6CCNCC6)nc45)nc23)c1 [Compound 477, 3-(7-(3-Fluorophenyl)-3H-imidazo[4,5-c]pyridin-2-yl)-5-(piperidin-4-yl)-1H-pyrazolo[4,3-b]pyridine] | > 10 | 4.56 | – | 13 |
| COc1cccc(-c2cncc3[nH]c(-c4n[nH]c5ccc(-c6cncc(NC(=O)C7CCCCC7)c6)nc45)nc23)c1 [Compound 967, N-(5-(3-(7-(3-Methoxylphenyl)-3H-imidazo[4,5-c]pyridin-2-yl)-1H-pyrazolo[4,3-b]pyridin-5-yl)pyridin-3-yl)cyclohexanecarboxamide] | > 10 | > 10 | 0 | 33.9 |
| CC(C)C(=O)Nc1cncc(-c2ccc3[nH]nc(-c4nc5c(-c6cccnc6)cncc5[nH]4)c3n2)c1 [Compound 93, N-(5-(3-(7-(Pyridin-3-yl)-3H-imidazo[4,5-c]pyridin-2-yl)-1H-pyrazolo[4,3-b]pyridin-5-yl)pyridin-3-yl)isobutyramide] | > 10 | > 10 | 12.2 | 18 |
| O=C(Nc1cncc(-c2ccc3[nH]nc(-c4nc5c(-c6cccs6)cncc5[nH]4)c3n2)c1)C1CC1 [Compound 328, N-(5-(3-(7-(Thiophen-2-yl)-3H-imidazo[4,5-c]pyridin-2-yl)-1H-pyrazolo[4,3-b]pyridin-5-yl)pyridin-3-yl)cyclopropanecarboxamide] | > 10 | > 10 | 0 | 40.6 |
| c1cc(-c2cncc3[nH]c(-c4n[nH]c5ccc(-c6cncc(OC7CCNCC7)c6)nc45)nc23)ccn1 [Compound 548, 5-(5-(Piperidin-4-yloxy)pyridin-3-yl)-3-(7-(pyridin-4-yl)-3H-imidazo[4,5-c]pyridin-2-yl)-1H-pyrazolo[4,3-b]pyridine] | > 10 | 2.47 | – | 22.6 |

More lines, main results first:

| EC50 (IL-6 in THP-1 cells) [µM] | SMILES | EC50 [1] [µM] | inhibition at 10 µM [1] [%] | inhibition at 10 µM (IL-6 in THP-1 cells) [%] |
| --- | --- | --- | --- | --- |
| > 10 | Cc1ncc(-c2ccc3[nH]nc(-c4nc5c(-c6cccc(F)c6)cncc5[nH]4)c3n2)s1 [Compound 1081, 5-(3-(7-(3-Fluorophenyl)-3H-imidazo[4,5-c]pyridin-2-yl)-1H-pyrazolo[4,3-b]pyridin-5-yl)-2-methylthiazole] | 1.96 | – | 7.7 |
| 1.34 | COc1cccc(-c2cncc3[nH]c(-c4n[nH]c5ccc(-c6cncc(O)c6)nc45)nc23)c1 [Compound 985, 5-(3-(7-(3-Methoxylphenyl)-3H-imidazo[4,5-c]pyridin-2-yl)-1H-pyrazolo[4,3-b]pyridin-5-yl)pyridin-3-ol] | 2.35 | – | – |
| > 10 | c1csc(-c2cncc3[nH]c(-c4n[nH]c5ccc(-c6ccncc6)nc45)nc23)c1 [Compound 326, 5-(Pyridin-4-yl)-3-(7-(thiophen-2-yl)-3H-imidazo[4,5-c]pyridin-2-yl)-1H-pyrazolo[4,3-b]pyridine] | > 10 | 26.6 | 22.3 |
| 0.094 | Nc1cncc(-c2ccc3[nH]nc(-c4nc5c(-c6ccccc6F)cncc5[nH]4)c3n2)c1 [Compound 59, 5-(3-(7-(2-Fluorophenyl)-3H-imidazo[4,5-c]pyridin-2-yl)-1H-pyrazolo[4,3-b]pyridin-5-yl)pyridin-3-amine] | 3.4 | – | – |
| > 10 | CN(C)Cc1cncc(-c2ccc3[nH]nc(-c4nc5c(-c6cccs6)cncc5[nH]4)c3n2)c1 [Compound 321, N,N-dimethyl-1-(5-(3-(7-(thiophen-2-yl)-3H-imidazo[4,5-c]pyridin-2-yl)-1H-pyrazolo[4,3-b]pyridin-5-yl)pyridin-3-yl)methanamine] | 7.46 | – | 22.2 |
